Results published in patent US6046228A, “Anti-viral pharmaceutical compositions containing saturated 1,2-dithiaheterocyclic compounds and uses thereof” (priority 1999, dated 2000).
pEC50, pIC50: −log10 of the molar value. Several values for one entry are separate records, joined by “and”; a condition that tells them apart may be missing. Equal entries are not always repeated. Where two headings read alike, the source gives them in different places.

Tests used:
HIV-1RF [1] = assay: XTT cytoprotection (cytopathicity) anti-HIV assay, CEM-SS cells; type: cell-based
Protocol: (§1) Initial anti-HIV screening was performed with CEM-SS cells and HIV-1RFusing the XTT cytoprotection assay as previously described (Weislow et al., J. National Cancer Inst. 81: 577-586, (1989)). HIV-1 isolates included common laboratory stains (RF, IIIB and MN), as well as a panel of HIV-1 clinical isolates (Cushman et al., J. Med. Chem. 37: 3040-3050, (1994)). The pyridone-resistant HIV-1A17 isolate (Nunberg et al., J. Virol., 65: 4887-4892 (1991)) was obtained from Emilio Emini at Merck Sharpe and Dohme Laboratories. Phytohemagglutinin-stimulated human peripheral blood lymphocytes (PBLs) and fresh monocyte-macrophage (Mono/MF) cultures were prepared and utilized in antiviral assays as previously described (Rice et al., Proc. Nat'l. Academy Science, USA 90: 9721-9724, (1993)); (Cushman et al., J. Med. Chem. 37: 3040-3050, (1994)). EC50 values for these cultures indicate the drug concentration that provided a 50% reduction in viral p24 production. […] The compounds can be synthesized according to the teachings of Singh et al., Sulfur Letters 8: 107-114, (1988). […] MT-2, MT-4, U1, HeLa-CD4-LTR-β-gal and 174xCEM cells were obtained from the AIDS Research and Reference Program (National Institute of Allergy and Infectious Disease, National Institutes of Health, Bethesda, Md. USA), as were the HIV-2MS and the AZT-resistant HIV-1G910-6 isolates.
(§2) Racemate and enantiomers of the cis-1,1-dioxo[1,2]dithiane-4,5-diol were synthesized and evaluated for antiviral activity in the XTT assay as described hereinabove.

CEM-SS cells = assay: XTT assay, cytotoxicity (IC50), CEM-SS cells; type: cell-based
Protocol: as §1, §2

HIV-1 p7NC protein = target: T1, HIV-1 p7NC protein (Human immunodeficiency virus type 1 group M subtype B, UniProt P04591); assay: Trp37 zinc finger fluorescence assay (zinc ejection from p7NC); type: biochemical; details: for p7NC Trp37 Assay (RFU): 25 μM compound
T1 construct: recombinant HIV-1 p7NC protein
Protocol: Fluorescence measurements of the Trp^37 residue in the C-terminal zinc finger of the recombinant HIV-1 p7NC protein were performed as previously described (Rice et al., Science 270:1194, 1995). The p7NC protein was prepared at 20 μg/ml in 10 mM sodium phosphate buffer (pH 7.0), treated with 25 μM of each compound, then after indicated time intervals the samples were diluted 1/10 in 10 mM sodium phosphate buffer (pH 7.0) and the fluorescence intensity measured. The excitation and emission wavelengths utilized with the Shimadzu RF5000 spectrofluorimeter were 280 nm and 351 nm, respectively. In an alternate assay, the zinc-selective fluorescent probe N-(6-methoxy-8quinolyl-)-p-toluenesulfonamide (TSQ, Molecular Probes, Eugene, Oreg.) originally described by Fredrickson (J. Neurosci. Meth. 20:91, 1987) was utilized to measure zinc released from the p7NC protein in vitro. Briefly, 2 μM recombinant HIV-1 p7NC protein in 10 mM sodium phosphate buffer, pH 7.0, 10% glycerol was treated with 10 μM 624151 ([…] total volume in 96-well plates), and the time-dependent increase in fluorescence was measured on a Labsystems Fluoroskan II (360 nm excitation filter and 460 nm emission filter) over a period of 2 hours. Induction of alterations of p7NC proteins within intact virions involved treatment of HIV-1MN for 1 hour at 37° C. with 25 μM test compound. Samples were centrifuged 1 hour at 4° C. under 18,000×g to pellet the virus from the drug. Virus pellets were resolved by non-reducing SDS-PAGE and analyzed by immunoblot using monospecific rabbit antisera to the purified p7NC protein.
^b The percent decrease in RFU was calculated based on measurement of
the initial fluorescence of the p7NC protein before and 10 minutes after
treatment with the 25 μM of compound at ambient temperature.
The ability of 624151 to chemically interact with the zinc fingers of the HIV-1 p7NC protein was initially determined by a fluorescence assay (Rice et al., Science 270:1194-1197, (1995)) that measures a loss in intrinsic fluorescence of the tryptophan (Trp^37) residue in the second finger of the protein that occurs upon loss of zinc from the finger (Summers et al., Protein Sci. 1:563, 1992). […] As the 624151 modifies the zinc finger thiolates and the zinc is ejected over time, the metal is bound by the TSQ fluorochrome (FIG. 1(B)).
Sodium Phosphate buffer, pH 7.0 in 1 ml was treated with 25 μM of
compound. At indicated times, the mixture was diluted 1/10 and the
relative fluorescence units (RFU) measured in a Shimadzu RF5000
spectrofluorimeter with […] and Em = 351 mn. Following
loss of zinc from the Cterminal zinc finger, the Trp37 residue folds away
from the # aqueous environment and experiences a loss of fluorescence.

HIV-1 integrase = target: T2, HIV-1 integrase (Human immunodeficiency virus type 1 group M subtype B, UniProt P04585); assay: HIV-1 integrase activity; type: biochemical; details: Table 6
T2 construct: the purified HIV-1 protease and integrase enzymes

HIV-1RF [2] = assay: effect of increasing multiplicity of infection, CEM-SS cells; type: cell-based; details: for pEC50: Human immunodeficiency virus 1, CEM-SS
Protocol: Initial anti-HIV screening was performed with CEM-SS cells and HIV-1RFusing the XTT cytoprotection assay as previously described (Weislow et al., J. National Cancer Inst. 81: 577-586, (1989)). HIV-1 isolates included common laboratory stains (RF, IIIB and MN), as well as a panel of HIV-1 clinical isolates (Cushman et al., J. Med. Chem. 37: 3040-3050, (1994)). The pyridone-resistant HIV-1A17 isolate (Nunberg et al., J. Virol., 65: 4887-4892 (1991)) was obtained from Emilio Emini at Merck Sharpe and Dohme Laboratories. Phytohemagglutinin-stimulated human peripheral blood lymphocytes (PBLs) and fresh monocyte-macrophage (Mono/MF) cultures were prepared and utilized in antiviral assays as previously described (Rice et al., Proc. Nat'l. Academy Science, USA 90: 9721-9724, (1993)); (Cushman et al., J. Med. Chem. 37: 3040-3050, (1994)). EC50 values for these cultures indicate the drug concentration that provided a 50% reduction in viral p24 production. […] The compounds can be synthesized according to the teachings of Singh et al., Sulfur Letters 8: 107-114, (1988). The 4,5-cis-dihydroxy(1,1-dioxy-1,2,-dithiohexane) compound (NSC 624151) has been abbreviated as 624151 for convenience. MT-2, MT-4, U1, HeLa-CD4-LTR-β-gal and 174xCEM cells were obtained from the AIDS Research and Reference Program (National Institute of Allergy and Infectious Disease, National Institutes of Health, Bethesda, Md. USA), as were the HIV-2MS and the AZT-resistant HIV-1G910-6 isolates.

HIV-1 p66-p51 RT = target: T3, HIV-1 p66-p51 RT (Human immunodeficiency virus type 1 group M subtype B, UniProt P04585); assay: reverse transcriptase activity assay; type: biochemical; details: nonphosphorylated control, in words
T3 construct: the purified HIV-1 p66-p51 RT enzyme
Protocol: The effects of 624151 on the in vitro activity of purified RT was determined by measurement of incorporation of [^3 H]TTP onto the poly(rA):oligo(dT)(rAdT) or poly(rC):oligo(dG)(rCdG) homopolymer template/primer systems. Samples (5 μL) were blotted onto DE81 paper, washed with 5% dibasic sodium phosphate as previously described (Buckheit et al., Antiviral Res. 21:247, (1993)), and then quantitated on a Packard Matrix 9600 dual beam counter. 3'-Azido-3'-deoxythymidine-5 '-triphosphateand UC38 (NSC 629243) served as positive controls for inhibition of RT. HIV-1 protease activity was quantitated by a reversed phase HPLC assay utilizing the […]Amide substrate (Multiple Peptide Systems, San Diego, Calif.) as previously described in Rice et al. (Proc. Nat'l. Academy of Science USA 9: 9721-9724, (1993)).

[3] = test system: attachment of HIV-1 to fresh human PBLs; assay: virus attachment assay, HIV-1RF to PBLs (p24-based); type: cell-based; details: control; 30 min
Protocol: Binding of HIV-1RF to PBLs was measured by a p24-based assay (Rice, et al., Proc. Nat'l. Academy of Science USA 90: 9721-9724, (1993)). Briefly, 5×10^5 PBLs were incubated with a concentrated stock of virus for 30 min. at 37° C. in the absence or presence of various concentrations of 624151, the unbound virus was washed away, and the cell-associated virus was solubilized in 1% Triton X-100, 1% BSA and analyzed by the p24 antigen capture assay as previously described. The binding of gp120to CD4 was analyzed using an antigen capture ELISA. All steps of the assay were carried out according to the manufacturer's protocols.
^.dagger. Attachment of HIV1 to fresh human PBLs, binding of gp120 to […]

[4] = Human immunodeficiency virus 1, CEM-SS, Table 5, read-out: EC50 Mean
[5] = Homo sapiens, CEM-SS, Table 5, cytotoxicity, read-out: IC50 Mean

O=S1(=O)C[C@H](O)[C@H](O)CS1 (single isomer, unassigned) [NSC 693194, (+)-cis-4,5-Dihydroxy-1,2-dithiane 1,1-dioxide]
pEC50 (HIV-1RF [1]; Human immunodeficiency virus 1, CEM-SS, CEM-SS cells, HIV-1RF, read-out: XTT Assay EC50): 4.80 | pEC50 (HIV-1RF [1]; [4]): 4.79 | pEC50 (HIV-1RF [1]; Table 5, listed as 693194, read-out: EC50 Duplicates): 4.73 and 4.86 | pIC50 (CEM-SS cells; Homo sapiens, CEM-SS, Table 5, cytotoxicity, read-out: IC50 Duplicates): 3.87 | pIC50 (CEM-SS cells; [5]): 3.87 | pIC50 (CEM-SS cells; Homo sapiens, CEM-SS, cytotoxicity, CEM-SS cells, read-out: XTT Assay IC50): 3.87 | pIC50 (CEM-SS cells; Table 5, cytotoxicity, listed as 693194, read-out: IC50 Duplicates): 3.88 | p7NC Trp37 Assay (RFU) (HIV-1 p7NC protein; 0 min, listed as 693194): 280 RFU | p7NC Trp37 Assay (RFU) (HIV-1 p7NC protein; 3 min, listed as 693194): 146 RFU | p7NC Trp37 Assay (RFU) (HIV-1 p7NC protein; 10 min, listed as 693194): 75 RFU | p7NC Trp37 Assay (RFU) (HIV-1 p7NC protein; 30 min, listed as 693194): 41 RFU | inhibition of HIV-1 integrase (HIV-1 integrase): NI100

O=S1(=O)C[C@H](O)[C@H](O)CS1 (single isomer, unassigned) [NSC 693195, (-)-cis-4,5-Dihydroxy-1,2-dithiane 1,1-dioxide]
pEC50 (HIV-1RF [1]; CEM-SS cells, HIV-1RF, read-out: XTT Assay EC50): 5.06 | pEC50 (HIV-1RF [1]; Table 5, listed as 693195, read-out: EC50 Duplicates): 5.04 and 5.06 | pEC50 (HIV-1RF [1]; Table 5, listed as 693195, read-out: EC50 Mean): 5.06 | EC50 relative to enantiomer or racemate (HIV-1RF [1]; in words): about half that of the (+) enantiomer | pIC50 (CEM-SS cells; Table 5, cytotoxicity, listed as 693195, read-out: IC50 Duplicates): 3.89 and 3.87 | pIC50 (CEM-SS cells; Table 5, cytotoxicity, listed as 693195, read-out: IC50 Mean): 3.88 | pIC50 (CEM-SS cells; cytotoxicity, CEM-SS cells, read-out: XTT Assay IC50): 3.88 | p7NC Trp37 Assay (RFU) (HIV-1 p7NC protein; 0 min, listed as 693195): 279 RFU | p7NC Trp37 Assay (RFU) (HIV-1 p7NC protein; 3 min, listed as 693195): 117 RFU | p7NC Trp37 Assay (RFU) (HIV-1 p7NC protein; 10 min, listed as 693195): 69 RFU | p7NC Trp37 Assay (RFU) (HIV-1 p7NC protein; 30 min, listed as 693195): 45 RFU | inhibition of HIV-1 integrase (HIV-1 integrase): NI100

Cc1cn([C@H]2C[C@H](N=[N+]=[N-])[C@@H](CO)O2)c(=O)[nH]c1=O [AZT, 3'-azido-3'-deoxythymidine]
pEC50 (HIV-1RF [1]; Human immunodeficiency virus 1, CEM-SS, Table 5, read-out: EC50 Duplicates): 8.27 | pEC50 (HIV-1RF [1]; [4]): 8.25 | pEC50 (HIV-1RF [1]; Table 5, read-out: EC50 Duplicates): 8.24 | pIC50 (CEM-SS cells; [5]): < 6.00 | loss of Trp37 fluorescence of p7NC (HIV-1 p7NC protein; FIG. 1(A), 25 μM, in words): not by AZT control | pEC50 (HIV-1RF [2]; MOI 0.01): 7.72 | pEC50 (HIV-1RF [2]; MOI 0.02): 7.62 | pEC50 (HIV-1RF [2]; MOI 0.04): 5.80 | pEC50 (HIV-1RF [2]; MOI 0.08): < 5.00 | pEC50 (HIV-1RF [2]; MOI 0.16): < 5.00 | pEC50 (HIV-1RF [2]; MOI 0.32): < 5.00 | pEC50 (HIV-1RF [2]; lowest MOI): 7.72 | effect of increasing the MOI on activity (HIV-1RF [2]; in words): completely inactive after only a six-fold increase in the MOI | inhibition of RT activity (HIV-1 p66-p51 RT): not inhibitory

dextran sulfate [reference compound]
EC50 Mean (HIV-1RF [1]; Table 5): 0.76 µg/mL | IC50 Duplicates (CEM-SS cells; Table 5, cytotoxicity): > 95 µg/mL | IC50 Mean (CEM-SS cells; Table 5, cytotoxicity): > 95 µg/mL | virion binding ID50 [3]: 1.8 µg/mL
